Source: the supplement of paper PMC11368000

What was measured:
Conditions in all cases: exposure time: 90 min
1368 [1] = donor line of iPSC-derived cardiomyocytes; assay: POD (EC05) for increase in beat frequency (positive chronotrope) vs vehicle; higher = less potent (higher point of departure)
Procedure, shortened: (§1)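 Cardiomyocytes derived from human iPSCs of 16 donors were grown 14 days in gelatin-coated 384-well plates, loaded 2 h with a fluorescent Ca2+ dye, then exposed for 90 min at 37 °C to final concentrations of 0.1, 1, 10 and 100 µM in 0.5% DMSO. A FLIPR Tetra recorded Ca2+ flux at 8 frames/s for 100 s before and after exposure. Points of departure for each donor were derived by hierarchical Bayesian Hill fitting of vehicle-normalised beat frequency, decay-to-rise ratio or peak frequency. The thresholds applied were a 5% change, or a 95% loss for peak frequency.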

1392 [2] = donor line of iPSC-derived cardiomyocytes; assay: as above
Procedure, shortened: as §1

1535 [3] = donor line of iPSC-derived cardiomyocytes; assay: as above
Procedure, shortened: as §1

30145 [4] = donor line of iPSC-derived cardiomyocytes; assay: as above
Procedure, shortened: as §1

1083 = donor line of iPSC-derived cardiomyocytes; assay: POD (EC05) for increase in Ca2+ transient decay-to-rise ratio (QT prolongation) vs vehicle; higher = less potent (higher point of departure)
Procedure: (§2)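 Human iPSC-derived cardiomyocytes from 16 donors were exposed for 90 min at 37 °C to each PFAS at 0.1, 1, 10 and 100 µM in 0.5% DMSO, 384-well plates. Kinetic Ca2+ flux (FLIPR) and Hoechst nuclei counts were normalised to vehicle wells and fitted with a hierarchical Bayesian Hill model to give donor-specific PODs: EC05 for beat-rate increase or decrease and for decay-to-rise ratio increase (QT proxy), EC95 for peak-frequency loss (asystole), EC10 for total cell number loss. 0.03 µM is the lower bound.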

1118 = donor line of iPSC-derived cardiomyocytes; assay: as above
Procedure: as §2

11235 = donor line of iPSC-derived cardiomyocytes; assay: as above
Procedure: as §2

1309 = donor line of iPSC-derived cardiomyocytes; assay: as above
Procedure: as §2

1368 [5] = assay: as above
Procedure: as §2

1392 [6] = assay: as above
Procedure: as §2

1434 = donor line of iPSC-derived cardiomyocytes; assay: as above
Procedure: as §2

1516 = donor line of iPSC-derived cardiomyocytes; assay: as above
Procedure: as §2

1518 = donor line of iPSC-derived cardiomyocytes; assay: as above
Procedure: as §2

1531 = donor line of iPSC-derived cardiomyocytes; assay: as above
Procedure: as §2

1535 [7] = assay: as above
Procedure: as §2

1565 = donor line of iPSC-derived cardiomyocytes; assay: as above
Procedure: as §2

20032 = donor line of iPSC-derived cardiomyocytes; assay: as above
Procedure: as §2

20084 = donor line of iPSC-derived cardiomyocytes; assay: as above
Procedure: as §2

30145 [8] = assay: as above
Procedure: as §2

30171 = donor line of iPSC-derived cardiomyocytes; assay: as above
Procedure: as §2

O=C(O)CCC(F)(F)C(F)(F)C(F)(F)C(F)(F)C(F)(F)F [2H,2H,3H,3H-Perfluorooctanoic_acid]
POD vs vehicle 1368 [1]: > 100 µM
POD vs vehicle 1392 [2]: > 100 µM
POD vs vehicle 1535 [3]: > 100 µM
POD vs vehicle 30145 [4]: > 100 µM
POD vs vehicle 1083: > 100 µM
POD vs vehicle 1118: > 100 µM
POD vs vehicle 11235: > 100 µM
POD vs vehicle 1309: > 100 µM
POD vs vehicle 1368 [5]: > 100 µM
POD vs vehicle 1392 [6]: > 100 µM
POD vs vehicle 1434: > 100 µM
POD vs vehicle 1516: 43.9 µM
POD vs vehicle 1518: > 100 µM
POD vs vehicle 1531: 17 µM
POD vs vehicle 1535 [7]: > 100 µM
POD vs vehicle 1565: > 100 µM
POD vs vehicle 20032: 48.4 µM
POD vs vehicle 20084: > 100 µM
POD vs vehicle 30145 [8]: > 100 µM
POD vs vehicle 30171: > 100 µM

O=C(O)C=C(C(F)(F)F)C(F)(F)F [3,3-Bis(trifluoromethyl)-2-propenoic_acid]
POD vs vehicle 1368 [1]: > 100 µM
POD vs vehicle 1392 [2]: > 100 µM
POD vs vehicle 1535 [3]: > 100 µM
POD vs vehicle 30145 [4]: > 100 µM
POD vs vehicle 1083: > 100 µM
POD vs vehicle 1118: > 100 µM
POD vs vehicle 11235: > 100 µM
POD vs vehicle 1309: > 100 µM
POD vs vehicle 1368 [5]: > 100 µM
POD vs vehicle 1392 [6]: > 100 µM
POD vs vehicle 1434: > 100 µM
POD vs vehicle 1516: > 100 µM
POD vs vehicle 1518: > 100 µM
POD vs vehicle 1531: > 100 µM
POD vs vehicle 1535 [7]: > 100 µM
POD vs vehicle 1565: > 100 µM
POD vs vehicle 20032: > 100 µM
POD vs vehicle 20084: > 100 µM
POD vs vehicle 30145 [8]: > 100 µM
POD vs vehicle 30171: > 100 µM

O=C(O)C=CC(F)(C(F)(F)F)C(F)(F)F [3-(Perfluoroisopropyl)-2-propenoic_acid]
POD vs vehicle 1368 [1]: > 100 µM
POD vs vehicle 1392 [2]: > 100 µM
POD vs vehicle 1535 [3]: > 100 µM
POD vs vehicle 30145 [4]: > 100 µM
POD vs vehicle 1083: > 100 µM
POD vs vehicle 1118: > 100 µM
POD vs vehicle 11235: > 100 µM
POD vs vehicle 1309: > 100 µM
POD vs vehicle 1368 [5]: > 100 µM
POD vs vehicle 1392 [6]: > 100 µM
POD vs vehicle 1434: > 100 µM
POD vs vehicle 1516: > 100 µM
POD vs vehicle 1518: > 100 µM
POD vs vehicle 1531: > 100 µM
POD vs vehicle 1535 [7]: > 100 µM
POD vs vehicle 1565: > 100 µM
POD vs vehicle 20032: > 100 µM
POD vs vehicle 20084: > 100 µM
POD vs vehicle 30145 [8]: > 100 µM
POD vs vehicle 30171: > 100 µM

O=C(O)CCC(F)(F)C(F)(F)C(F)(F)F [3:3 Fluorotelomer carboxylic acid]
POD vs vehicle 1368 [1]: > 100 µM
POD vs vehicle 1392 [2]: > 100 µM
POD vs vehicle 1535 [3]: > 100 µM
POD vs vehicle 30145 [4]: > 100 µM
POD vs vehicle 1083: > 100 µM
POD vs vehicle 1118: > 100 µM
POD vs vehicle 11235: > 100 µM
POD vs vehicle 1309: > 100 µM
POD vs vehicle 1368 [5]: > 100 µM
POD vs vehicle 1392 [6]: > 100 µM
POD vs vehicle 1434: > 100 µM
POD vs vehicle 1531: > 100 µM
POD vs vehicle 1535 [7]: > 100 µM
POD vs vehicle 1565: > 100 µM
POD vs vehicle 20032: > 100 µM
POD vs vehicle 20084: > 100 µM
POD vs vehicle 30145 [8]: > 100 µM
POD vs vehicle 30171: > 100 µM

O=C(CC(=O)C(F)(F)C(F)(F)F)C(F)(F)F [3H,3H-Perfluoro-2,4-hexanedione]
POD vs vehicle 1368 [1]: > 100 µM
POD vs vehicle 1392 [2]: > 100 µM
POD vs vehicle 1535 [3]: > 100 µM
POD vs vehicle 30145 [4]: > 100 µM
POD vs vehicle 1083: > 100 µM
POD vs vehicle 1118: > 100 µM
POD vs vehicle 11235: > 100 µM
POD vs vehicle 1309: > 100 µM
POD vs vehicle 1368 [5]: > 100 µM
POD vs vehicle 1392 [6]: > 100 µM
POD vs vehicle 1434: > 100 µM
POD vs vehicle 1516: > 100 µM
POD vs vehicle 1518: > 100 µM
POD vs vehicle 1535 [7]: > 100 µM
POD vs vehicle 1565: > 100 µM
POD vs vehicle 20032: > 100 µM
POD vs vehicle 20084: > 100 µM
POD vs vehicle 30145 [8]: > 100 µM
POD vs vehicle 30171: > 100 µM
